Data as given in PubChem BioAssay AID179 (DTP/NCI, 2004).
Active and inactive are the calls of the source.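 The calls were made as follows: active = compounds giving half or more protection of infected cells from virus-caused growth loss, again on retest; inactive = the rest.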 Where a SMILES comes first, the peptide text is derived from it.

System: CEM cells HIV-1 protection, formazan growth assay
Test: NCI AIDS Antiviral Assay
Conditions: for IC50: measured here: growth of uninfected CEM cells
Outline: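 Category rules: moderately active means at least 50% protection on retest, and confirmed active means 100% protection reproducibly. The underlying data came from a formazan growth assay in HIV-1-infected CEM cells.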

Structure (SMILES)	outcome	EC50 [µM]	IC50 [µM]
[N-]=[N+]=Nc1ccc(CCN2CCN(c3cccc(C(F)(F)F)c3)CC2)cc1I	inactive	–	–
O=S1C(=c2ccc(=C3Sc4ccccc4S3)cc2)Sc2ccccc21 (stereo not drawn)	inactive	–	–
COC1(OC)CC2C(=O)CCCC21OC (stereo not drawn)	–	> 603	> 603
O=C(/N=N/C(=O)Oc1ccccc1)Oc1ccccc1	–	> 200	33.1
CN(C)P(=O)(N(C)C)N(C)C.[CH3][Sn]([CH3])([Cl])[Cl]	inactive	–	–
N#Cc1c(N2CCCCC2)[nH]c(=O)n(-c2ccccc2)c1=S	–	> 200	> 200
Cc1ccc(SSC(=S)Nc2ccccc2)cc1	inactive	–	–
C/C(Cc1ccccc1)=N\NC(N)=S	inactive	–	–
c1ccc(CN2CCc3[nH]c4ccccc4c3C2)cc1	–	> 200	21.9
COc1cc(CCCl)c(CC2=NCCc3cc(OC)c(OC)cc32)cc1OC	–	> 200	31.6
CCOC(=O)c1ccc(N=c2sc3ccccc3nc2Nc2ccc(C(=O)OCC)cc2)cc1	–	> 200	> 200
COc1ccc(OC)c(NC2=NCCO2)c1	–	> 200	107
CC1(C)OC(C[C@]2(C#N)C[C@H](CCl)OC(C)(C)O2)C[C@@H](C[C@]2(C#N)C[C@H](CCl)OC(C)(C)O2)O1 (stereo partly drawn)	–	> 200	67.6
CC(NNC(=S)N1CCCCCC1)c1cccnn1 (stereo not drawn)	–	> 200	0.355
CCCCCCCCCCCCCC(=O)NO	–	> 20.4	> 20.4
Cc1nc2c(O)cc(Br)c(O)c2nc1C	inactive	–	–
O=S(=O)(O)c1cc(NC(=S)c2ccc3cccnc3c2O)ccc1/C=C/c1ccc(NC(=S)c2ccc3cccnc3c2O)cc1S(=O)(=O)O	–	13.8	72.4
COC1=C(C(=O)OC(C)(C)C)C23CCCCC2(C(C(=O)OC(C)(C)C)=C(OC)C3C(=O)OC(C)(C)C)C1C(=O)OC(C)(C)C (stereo not drawn)	inactive	–	–
O=C1/C(=C/c2ccccc2)CN(C(=O)OCc2ccccc2)C/C1=C\c1ccccc1	inactive	–	–
O=C(O)C1CCC(C(=O)O)SS1 (stereo not drawn)	–	> 1200	> 1200
[C-]#[N+][C@@H]1C2C([C@@]3(C)CCC(C(C)(C)[N+]#[C-])O3)CC[C@](C)([N+]#[C-])[C@H]2CC[C@@]1(C)O (stereo partly drawn)	inactive	–	–
COC(=O)C12CC(c3ccccc31)C1C(=O)OC(=O)C12 (stereo not drawn)	–	> 132	> 132
O=[N+]([O-])c1ccc(N/N=C/c2ccc(OCCCCCCCCCCCO)cc2)c([N+](=O)[O-])c1	–	> 200	42.7

Structure (SMILES)	outcome	EC50 [µM]	IC50 [µM]
CC(=O)NC(Cc1ccccc1)NC(=O)O (stereo not drawn)	–	> 200	> 200
Cc1ccc2c(c1)C(c1ccccc1)C1COC(=O)C1O2 (stereo not drawn)	–	> 93.3	5.25
Cc1cccc(C)c1N/C(=N\Nc1c([N+](=O)[O-])cccc1[N+](=O)[O-])NC(=O)c1ccccc1C(=O)N/C(=N/Nc1c([N+](=O)[O-])cccc1[N+](=O)[O-])Nc1c(C)cccc1C	–	> 200	69.2
C=C1CC[C@]2(C)C3CC[C@]4(C)C(C(C)CCC(=O)O)CCC4[C@@H]3CC[C@@H]2C1 (stereo partly drawn)	–	> 5.13	> 5.13
C[N+]1(C)C/C(=C\c2ccncc2)C(=O)/C(=C/c2ccncc2)C1	inactive	–	–
Cc1ccc(-c2oc3ccccc3c(=O)c2O)cc1	–	> 200	53.7
OCc1ccccc1C1CSCSC1	–	> 219	> 219
O=CSC(=Nc1ccc(Cl)cc1)NC(=O)COc1ccc(Cl)cc1	–	> 148	> 100
COc1ccc(/C=C(/C#N)C(N)=O)c(OC)c1	–	> 200	60.3
CC1=CC2O[C@@H]3C[C@@H](O)[C@](C)(C2(C)CC1=O)C31CO1 (stereo partly drawn)	–	> 200	3.72
OCC1C(CO)C2CCC1C2(c1ccccc1)c1ccccc1 (stereo not drawn)	–	> 95.5	60.3
CSc1c(C(N)=S)c(N)nn1-c1ccccc1	–	> 200	155
O=C(NNCC(F)(F)F)c1ccncc1	–	> 200	30.2
CN=C1CN2OC(=O)N(C)C2(c2ccccc2)c2cc(Cl)ccc2N1 (stereo not drawn)	–	> 112	41.7
COc1ccccc1OCC(Cn1c(=O)nc(-c2ccccc2)c2cc(Cl)ccc21)OC(N)=O (stereo not drawn)	–	> 28.2	> 28.2
NCCSSCc1ccccc1CSSCCN	inactive	–	–
CC1([N+](=O)[O-])COP(=O)(Nc2cccc(Cl)c2)OC1 (stereo not drawn)	–	> 813	398
CN(N)C(=O)NCCCl	–	> 200	> 200
NC(N)=NN=C(c1ccccc1)c1ccccc1	–	> 200	1.02
Cc1ncc2c(n1)NC(c1ccc([N+](=O)[O-])cc1)NC2 (stereo not drawn)	–	> 69.2	> 69.2
O=C1Nc2cnc(Cl)nc2Nc2ccc(Cl)cc21	–	123	> 200
Cc1cn(C2OCC(CO)C2F)c(=O)[nH]c1=O (stereo not drawn)	–	> 200	> 200
Cc1csc(=Nc2ccccc2)n1CCC(O)(P(=O)(O)O)P(=O)(O)O	–	> 200	9.55

Structure (SMILES)	outcome	EC50 [µM]	IC50 [µM]
N/C(=C\c1ccc(/C=C(\NC(=O)c2ccccc2)c2nc3c([nH]2)C(=O)c2ccccc2C3=O)cc1)c1nc2c([nH]1)C(=O)c1ccccc1C2=O	inactive	–	–
C[n+]1c(/C=C/c2ccc3c(c2)OCO3)ccc2ccccc21	–	> 200	5.89
C1=Nc2ccccc2/C1=C/c1c[nH]c2ccccc12	–	0.0631	> 200
O=P(Nc1ccccc1)(Nc1ccccc1)Nc1ccccc1	–	> 155	141
CCC(=N\N=C(N)N)/C(CC)=N/N=C(N)N	–	> 562	> 562
Cc1csc(NNC(N)=O)n1	–	> 200	> 200
CC(Cc1ccccc1)Nc1ncnc2c1ncn2C1OC(CO)CC1O (stereo not drawn)	inactive	–	–
Cc1ccc(S(=O)(=O)[N-]C2C(=O)c3ccccc3C(=O)C2[n+]2cccc(C(N)=O)c2)cc1 (stereo not drawn)	–	> 200	> 200
O=C(c1c(F)c(F)c(F)c(F)c1F)n1c(=S)n(C(=O)c2c(F)c(F)c(F)c(F)c2F)c2ccccc21	–	> 100	4.9
Cc1ccc(NC(=O)CSc2nnc(Cc3ccccc3)o2)c(C)c1	–	> 141	135
COc1ccc(NS(=O)c2ccc(-c3ccccc3)cc2)cc1 (stereo not drawn)	–	> 200	14.8
Cc1nc2cc(C(F)(F)F)ccc2[nH]c1=O	–	> 200	> 200
Cc1nc(Nc2ccc(Cl)cc2)sc1C(=O)Nc1cccc2c(=O)[nH][nH]c(=O)c12	–	> 17	> 17
O=C(O)CCCC#CCCCC(=O)O	–	> 200	> 200
CCn1c2c(c3ccccc31)[C@@H](c1ccc(Cl)cc1)CC1C(=O)N(c3ccccc3)C(=O)C21 (stereo partly drawn)	–	> 11.5	> 11.5
O=c1[nH]c(=S)[nH]c2[nH]c(=S)[nH]c12	–	> 200	> 200
[N-]=[N+]=NC1CC(n2ccc(=O)[nH]c2=O)OC1CO (stereo not drawn)	–	2.88	20
C=CC1(c2ccc(OC)cc2)OCCCO1	–	> 200	97.7
N[C@@H]1C(CO)NC[C@@H]1CO (stereo partly drawn)	–	> 200	> 200
CNC(=O)NCNC(=O)NC	–	> 562	> 562
Cc1ccccc1NC(=O)c1c(C)oc2c1C(=O)c1ccccc1C2=O	–	> 39.8	> 39.8
O=c1c2nc3ccccc3c(=O)n2ncn1-c1ccccc1Cl	–	> 200	> 200
N#C/C(=C\c1ccc(F)cc1)c1nc(-c2cc3ccccc3oc2=O)cs1	inactive	–	–

Structure (SMILES)	outcome	EC50 [µM]	IC50 [µM]
O=C(Nc1ccc(Cl)cc1)C(=O)C1=C(O)c2ccccc2OC1	–	> 102	> 102
CC(C)(C)OC(=O)NCCNC(=O)OCc1ccccc1	–	> 200	> 200
CCN(CC)CCCNc1ccc([N+](=O)[O-])c2nc3ccccc3c(N)c12	–	> 200	0.214
Cc1c(/C=N/NC(=S)N2CCCCC2)c(=O)n(-c2ccccc2)n1C	–	> 200	28.8
O=C1/C(=C/c2ccc(OCc3ccccc3)cc2)CCC/C1=C\c1ccc(OCc2ccccc2)cc1	–	> 2.95	> 2.95
S=C1Cc2cc3ccccc3nc2-c2ccccc2N1	–	> 100	> 100
FC(F)=C(c1ccc(-c2ccc(Cl)cc2)cc1)C(F)(F)F	–	> 200	20.9
CC1=CP(=O)(c2ccccc2)CC1 (stereo not drawn) (tested in a mixture with another compound)	–	> 646	> 646
CCOC(=O)C(=CNC(=S)N=Nc1c(O)[nH]c2ccccc12)C(=O)OCC	–	> 200	70.8
NC1CCCCC1NCCNC1CCCCC1N (stereo not drawn)	–	> 200	178
c1cc2n(n1)CCN2	–	> 2290	170
CN(C)C=O.CN(C)C=O.CN1C(C(=O)Nc2ccccn2)=C([O-])c2ccccc2S1(=O)=O.CN1C(C(=O)Nc2ccccn2)=C([O-])c2ccccc2S1(=O)=O.[Cu+2]	inactive	–	–
CC1(C)N=C(C(N)=O)c2ncn(CCCO)c2N1	–	> 200	> 200
Cc1ccc(S(=O)(=O)Nc2cccc3c(=O)[nH]cnc23)cc1	–	> 83.2	13.8
CCC(C)C(NC(=O)C(CCC(=O)O)NC(=O)C(CCCCN)NC(=O)C(CO)NC(=O)C(CC(C)C)NC(=O)C(Cc1ccc(O)cc1)NC(=O)C(C)N)C(=O)NC(C)C(=O)NC(CO)C(=O)NC(CC(=O)O)C(=O)O (stereo not drawn) (H-AYLSKEIASD-OH; configuration not given here)	inactive	> 29.5	> 29.5
CN(C)CCN1C(=O)CN=C(c2ccccc2Cl)c2cc(Cl)ccc21	–	> 200	117
Cc1nnc(Nc2ccccc2)o1	inactive	–	–
CCCCCCCCCCCCCCOCCS(=O)(=O)O	–	> 200	52.5
CCCCCCc1cc2cc(-c3csc(-c4ccc(OC)cc4)n3)c(=O)oc2cc1O	–	> 200	9.12
COc1ccc(CN2CC(=O)N3Cc4ccccc4CN3C(=O)C2)cc1	–	> 200	166
